Laboratory results: US20020052295A1, “Diacyl derivatives of propylene diamine having herbicidal activity” (priority 1999, published 2002)

How the values were obtained:
Details in all cases: lowest tested rate giving 80% or greater inhibition, approx. 14 days after planting and treating, greenhouse
[1] = test system: POROL; assay: Pre-emergence herbicidal activity on POROL (common purslane); format: in vivo, Portulaca oleracea
How it was run: (§1)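 Surface-applied pre-emergence treatment (compound diluted in 1:1 acetone/water) onto seeded, soil-covered pots. Greenhouse 30/21 °C. Day ~14: % inhibition vs untreated → GR80.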

[2] = test system: BRAPP; assay: Pre-emergence herbicidal activity on BRAPP (broadleaf signalgrass); format: in vivo, Brachiaria platyphylla
Description: (§2) All such uses, and the biological activity enabling such uses, are embraced by the term “herbicidal” herein. Tables 15 and 16 summarize results of tests conducted as described below to determine the pre-emergence herbicidal activity, in the form of a GR80 value, of illustrative compounds of this invention. […] Where herbicidal activity was evident but 80% inhibition was not achieved at the highest rate tested (typically 1000 g/ha), an asterisk (*) is shown in the following tables. Herbicidal activity evident in the form of symptoms of phytotoxicity, in the absence of at least 80% inhibition at any rate, is indicated in the tables by “phyto”. A blank cell in the following tables indicates no herbicidal or phytotoxic response at any rate tested.
(§3) The pre-emergence tests were conducted by the following procedure. Topsoil was sieved to pass through a 1.27 cm screen. Fertilizer was added to the topsoil and the mixture was then sterilized by heating. The topsoil mixture was placed in a pot and compacted to a depth of 1.0 to 1.25 cm from the top of the pot. Seeds of each of several monocotyledonous and dicotyledonous annual plant species were placed on top of the soil. Additional soil was subsequently placed over the seeds to level-fill the pot. A known amount of each test compound dissolved or suspended in an appropriate organic solvent was diluted with a 50:50 mix of acetone and water and applied to the surface of the soil. After treatment the plants were placed in a greenhouse with a 30/21° C. day/night temperature regime where they received 0.64 cm of overhead irrigation. All subsequent watering consisted of a light overhead mist and/or subirrigation as needed for germination and growth.
(§4) Approximately 14 days after planting and treating, the plants were observed and herbicidal efficacy recorded as percent inhibition by comparison with untreated plants.
(§5) The plant species usually regarded as weeds which were utilized in the tests are identified in the tables below according to the following legend, in which “d” indicates a dicotyledonous species and “m” a monocotyledonous species. All monocotyledonous species included in the tests herein are grasses.

[3] = test system: CONAR; assay: Pre-emergence herbicidal activity on CONAR (field bindweed); format: in vivo, Convolvulus arvensis
Description: as §2, §3, §4, §5

[4] = test system: PANDI; assay: Pre-emergence herbicidal activity on PANDI (fall panicum); format: in vivo, Panicum dichotomiflorum
How it was run: as §1

[5] = test system: AMARE; assay: Pre-emergence herbicidal activity on AMARE (redroot pigweed); format: in vivo, Amaranthus retroflexus
How it was run: as §1

[6] = test system: ABUTH; assay: Pre-emergence herbicidal activity on ABUTH (velvetleaf); format: in vivo, Abutilon theophrasti
How it was run: as §1

[7] = test system: SORVU; assay: Pre-emergence herbicidal activity on SORVU (shattercane); format: in vivo, Sorghum vulgare
Description: as §2, §3, §4, §5

[8] = test system: CHEAL; assay: Pre-emergence herbicidal activity on CHEAL (common lambsquarters); format: in vivo, Chenopodium album
How it was run: as §1

[9] = test system: SORHA; assay: Pre-emergence herbicidal activity on SORHA (johnsongrass, seedling); format: in vivo, Sorghum halepense
Description: as §2, §3, §4, §5

[10] = test system: PANMI; assay: Pre-emergence herbicidal activity on PANMI (wild proso millet); format: in vivo, Panicum miliaceum
How it was run: as §1

[11] = test system: DATST; assay: Pre-emergence herbicidal activity on DATST (jimsonweed); format: in vivo, Datura stramonium
How it was run: as §1

[12] = test system: ECHCG; assay: Pre-emergence herbicidal activity on ECHCG (barnyardgrass); format: in vivo, Echinochloa crus-galli
Description: as §2, §3, §4, §5

[13] = test system: SETFA; assay: Pre-emergence herbicidal activity on SETFA (giant foxtail); format: in vivo, Setaria faberi
How it was run: as §1

[14] = test system: SOLNI; assay: Pre-emergence herbicidal activity on SOLNI (black nightshade); format: in vivo, Solanum nigrum
How it was run: as §1

[15] = test system: CIRAR; assay: Pre-emergence herbicidal activity on CIRAR (canada thistle, seedling); format: in vivo, Cirsium arvense
How it was run: as §1

[16] = test system: DIGSA; assay: Pre-emergence herbicidal activity on DIGSA (large crabgrass); format: in vivo, Digitaria sanguinalis
How it was run: as §1

| Structure (SMILES) | Pre-emergence activity (GR80) on PORAL [1] | Pre-emergence activity (GR80) on BRAPP [2] | Pre-emergence activity (GR80) on CONAR [3] | Pre-emergence activity (GR80) on PANDI [4] | Pre-emergence activity (GR80) on AMARE [5] | Pre-emergence activity (GR80) on ABUTH [6] | Pre-emergence activity (GR80) on SORVU [7] | Pre-emergence activity (GR80) on CHEAL [8] | Pre-emergence activity (GR80) on SORHA [9] | Pre-emergence activity (GR80) on PANMI [10] | Pre-emergence activity (GR80) on DATST [11] | Pre-emergence activity (GR80) on ECHCG [12] | Pre-emergence activity (GR80) on SETFA [13] | Pre-emergence activity (GR80) on SOLNI [14] | Pre-emergence activity (GR80) on CIRAR [15] | Pre-emergence activity (GR80) on DIGSA [16] |
| --- | --- | --- | --- | --- | --- | --- | --- | --- | --- | --- | --- | --- | --- | --- | --- | --- |
| COc1c(F)cccc1C(=O)NC(C)CNC(=O)c1cccc(C(F)(F)F)c1 (centres unmarked) [Example 40] | * (Where herbicidal activity was evident but 80% inhibition was not achieved at the highest rate tested (typically 1000 g/ha), an asterisk (*) is shown) | * (Where herbicidal activity was evident but 80% inhibition was not achieved at the highest rate tested (typically 1000 g/ha), an asterisk (*) is shown) | phyto | 750 g/ha | 750 g/ha | phyto | phyto | 750 g/ha | phyto | phyto | 1000 g/ha | phyto | 1000 g/ha | phyto |  |  |
| Cc1cccc(C(=O)NC(C)CNC(=O)c2cccc(C(F)(F)F)c2)c1Cl (centres unmarked) [Example 65] | 125 g/ha | 500 g/ha | 250 g/ha | 125 g/ha | 125 g/ha | 250 g/ha |  | 32 g/ha | * (Where herbicidal activity was evident but 80% inhibition was not achieved at the highest rate tested (typically 1000 g/ha), an asterisk (*) is shown) | 750 g/ha | 250 g/ha | 500 g/ha | 250 g/ha | 500 g/ha | 125 g/ha | 250 g/ha |
| Cc1cccc(C(=O)NC(C)CNC(=O)c2cccc(C(F)(F)F)c2)c1Br (centres unmarked) [Example 66] | 500 g/ha | 1000 g/ha | 250 g/ha | 500 g/ha | 250 g/ha | 250 g/ha |  | 125 g/ha | * (Where herbicidal activity was evident but 80% inhibition was not achieved at the highest rate tested (typically 1000 g/ha), an asterisk (*) is shown) | 750 g/ha | 500 g/ha | 750 g/ha | 500 g/ha | 750 g/ha | 500 g/ha | 750 g/ha |
| CC(CNC(=O)c1cccc(C(F)(F)F)c1)NC(=O)c1cccc(OC(F)(F)F)c1 (centres unmarked) [Example 72] | 250 g/ha | 1000 g/ha | * (Where herbicidal activity was evident but 80% inhibition was not achieved at the highest rate tested (typically 1000 g/ha), an asterisk (*) is shown) | 500 g/ha | 125 g/ha | 1000 g/ha | phyto | 500 g/ha | * (Where herbicidal activity was evident but 80% inhibition was not achieved at the highest rate tested (typically 1000 g/ha), an asterisk (*) is shown) | phyto | 1000 g/ha | phyto | 500 g/ha |  | 500 g/ha | 250 g/ha |
| CC(CNC(=O)c1cccc(C(F)(F)F)c1)NC(=O)c1cccc(SC(F)(F)F)c1 (centres unmarked) [Example 73] | 750 g/ha | phyto | phyto | * (Where herbicidal activity was evident but 80% inhibition was not achieved at the highest rate tested (typically 1000 g/ha), an asterisk (*) is shown) | 250 g/ha | phyto |  | 750 g/ha | phyto | phyto | phyto | phyto | phyto | 1000 g/ha | phyto | phyto |
| Cc1ccccc1C(=O)NC(C)CNC(=O)c1cccc(C(F)(F)F)c1 (centres unmarked) [Example 109] | 750 g/ha | * (Where herbicidal activity was evident but 80% inhibition was not achieved at the highest rate tested (typically 1000 g/ha), an asterisk (*) is shown) | phyto | 750 g/ha | 250 g/ha | phyto |  | 750 g/ha | * (Where herbicidal activity was evident but 80% inhibition was not achieved at the highest rate tested (typically 1000 g/ha), an asterisk (*) is shown) | 1000 g/ha | 500 g/ha | phyto | 750 g/ha | 750 g/ha | 750 g/ha | 250 g/ha |
